Patent US20250304551A1 (SHANGHAI APEIRON THERAPEUTICS COMPANY LIMITED, priority 2022, published 2025)

How the values were obtained:
[1] = molecular target: T1, Human KIF18A (amino acid sequence 1-417) (Homo sapiens, UniProt Q8NI77); test: Enzyme activity detection experiment (ADP-Glo, KIF18A with tubulin and ATP); format: biochemical; settings: tubulin 60 μg/mL, ATP 25 μM, KIF18A protein 2.5 nM, 120 minutes at ambient temperature, ADP-Glo chemiluminescence
T1 construct: purchased Viva Biotech (Shanghai) Ltd
Experimental: Materials: Human KIF18A (amino acid sequence 1-417) was obtained from Viva Biotech (Shanghai) Ltd., and the ADP-Glo™ protein kinase kit was acquired from Promega, USA. Tubulin was sourced from Cytoskeleton, USA, while a 384-well assay plate and the Envision multifunctional microplate reader were obtained from PerkinElmer, USA.
Enzyme activity detection: The compound powder in DMSO was firstly dissolved to prepare a 10 mM stock solution. Next, gradient dilutions were prepared in the microplate to achieve final concentrations of […]. Sequentially, 2.5 μL of tubulin (60 μg/mL), the compound, ATP (25 μM), and KIF18A protein (2.5 nM) were added to each well, and the reaction was incubated at ambient temperature for 120 minutes. After the reaction, 10 μL of ADP-Glo™ reagent was added to each well and incubated at ambient temperature for 30 minutes. Subsequently, 20 μL of detection reagent was added to each well and incubated for an additional 30 minutes in the dark. Finally, chemiluminescence detection was performed using the PerkinElmer Envision multifunctional microplate reader.

[2] = system: OVCAR3 cells; test: Cell proliferation activity test, OVCAR3 (CyQUANT Direct); format: cell-based; settings: Homo sapiens, OVCAR-3, 72 h, 3 days incubation, CyQUANT fluorescence detection, read-out: OVCAR-3 Cell Viability_IC50_nM
Experimental: Materials and Cells: OVCAR3 cells were purchased from Nanjing Cobioer Biosciences Co., Ltd. RPMI-1640 medium, fetal bovine serum, and the CyQUANT Direct Cell Proliferation Assay kit were purchased from Thermo Fisher Scientific, USA; 96-well cell culture plates were sourced from Corning, USA.
Cell Culture: Culture OVCAR3 cells with RPMI-1640 medium containing […] and incubate them in a […] incubator at 37° C. Only cells in the logarithmic growth phase can be used for the test.
Inoculate OVCAR3 cells into a 96-well cell culture plate at 90 μL per well and incubate overnight in a […] incubator at 37° C. Dissolve the compound powder in DMSO to prepare a stock solution of 10 mM. Then perform gradient dilution for the compounds in the microplate to achieve a final concentration of 0-10 μM. Add 10 μL of cell culture medium containing compounds to each well to make the final DMSO content 0.20%. Incubate the cell plates in a […] incubator at 37° C. for 3 days. Add 100 μL of CyQUANT detection reagent to each well, react at 37° C. for 60 min, and perform fluorescence detection using the PerkinElmer Envision.

[3] = system: HT29 cells; test: CyQuant cell proliferation activity test, HT29; format: cell-based; settings: Homo sapiens, HT-29, 72 h, HT29 2000 cells per well, 3 days incubation, initial concentration 3000 nM, IC50 by XLFIT, read-out: HT-29 Cell Viability_IC50_nM
Experimental: Materials and Cells: HT29 cells were purchased from Nanjing Cobioer Biosciences Co., Ltd.; RPM-1640 medium, fetal bovine serum, Trypsin-EDTA (0.25%), DMSO, 96-well plates, and CyQuant reagents were purchased from ThermoFisher (USA).
Cell Culture: Culture HT29 cells with RPMI-1640 containing 10% fetal bovine serum under the condition of 37° C. and 5% CO2. Only cells in the logarithmic growth phase can be used for the test.
Cell Proliferation Activity Test: Use the CyQuant reagent to detect the proliferation inhibitory activity of compounds on HT29 cells. Adjust the cell density and inoculate 100 μL per well into the 96-well plate (HT29 at 2000 cells per well), then incubate overnight under the condition of 37° C. and […]. Add compounds of various target concentrations (initial concentration of 3000 nM, 3-fold dilution, 9 concentration gradients), and make the DMSO content 0.20%. Incubate the cell plates at 37° C. and 5% CO2 for 3 days. Incubate with CyQuant reagent for 1 h, read the plate by Envision, and calculate IC50 using XLFIT.

T1 sequence (Q8NI77 1-417): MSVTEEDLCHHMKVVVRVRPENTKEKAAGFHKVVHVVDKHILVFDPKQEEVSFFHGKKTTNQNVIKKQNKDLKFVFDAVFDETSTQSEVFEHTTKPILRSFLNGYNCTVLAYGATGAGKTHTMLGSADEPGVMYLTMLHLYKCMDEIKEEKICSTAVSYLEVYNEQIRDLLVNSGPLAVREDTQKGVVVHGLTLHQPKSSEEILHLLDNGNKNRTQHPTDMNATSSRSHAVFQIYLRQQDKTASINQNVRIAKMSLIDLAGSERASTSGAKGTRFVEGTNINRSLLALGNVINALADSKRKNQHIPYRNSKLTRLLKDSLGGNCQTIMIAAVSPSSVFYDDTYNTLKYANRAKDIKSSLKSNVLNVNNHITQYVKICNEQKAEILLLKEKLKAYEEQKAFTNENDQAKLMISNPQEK
T1 sequence (Q2XVP4 whole entry partner): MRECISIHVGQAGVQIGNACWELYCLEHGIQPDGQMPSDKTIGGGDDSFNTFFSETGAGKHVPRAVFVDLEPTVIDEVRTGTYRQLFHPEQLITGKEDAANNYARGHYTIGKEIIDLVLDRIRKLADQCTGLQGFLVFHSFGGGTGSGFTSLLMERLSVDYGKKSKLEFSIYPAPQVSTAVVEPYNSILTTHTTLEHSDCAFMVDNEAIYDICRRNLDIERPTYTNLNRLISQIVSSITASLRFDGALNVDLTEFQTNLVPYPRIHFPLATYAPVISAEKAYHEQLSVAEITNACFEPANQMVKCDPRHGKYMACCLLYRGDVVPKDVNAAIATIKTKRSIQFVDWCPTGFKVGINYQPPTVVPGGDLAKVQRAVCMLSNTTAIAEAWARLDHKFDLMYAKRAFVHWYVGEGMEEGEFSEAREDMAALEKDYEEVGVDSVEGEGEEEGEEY
T1 sequence (P02554 whole entry partner): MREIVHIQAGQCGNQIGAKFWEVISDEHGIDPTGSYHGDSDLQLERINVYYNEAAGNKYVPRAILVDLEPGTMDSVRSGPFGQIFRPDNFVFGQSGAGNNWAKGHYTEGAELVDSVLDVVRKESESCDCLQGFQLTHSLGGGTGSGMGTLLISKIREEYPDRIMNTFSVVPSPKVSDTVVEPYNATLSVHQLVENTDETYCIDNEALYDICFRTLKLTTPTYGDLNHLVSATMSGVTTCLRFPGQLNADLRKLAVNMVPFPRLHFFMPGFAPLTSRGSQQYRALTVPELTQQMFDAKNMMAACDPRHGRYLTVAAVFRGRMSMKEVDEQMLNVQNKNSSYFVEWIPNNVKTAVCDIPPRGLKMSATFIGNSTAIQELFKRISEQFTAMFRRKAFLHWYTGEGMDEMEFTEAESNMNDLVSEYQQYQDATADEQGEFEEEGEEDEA

Row | SMILES | IC50 [1] | IC50 [2] | IC50 [3]
1 | O=S(=O)(CCO)Nc1ccc(C=C(F)c2cc(N3CCC(F)(F)CC3)c3ncccc3c2)c(N2CCC3(CC2)CC3)c1 [Example 1, N-(4-(2-(8-(4,4-difluoropiperidin-1-yl)quinolin-6-yl)-2-fluorovinyl)-3-(6-azaspiro[2.5]octan-6-yl)phenyl)-2-hydroxyethane-1-sulfonamide] | > 3000 nM | 474 nM | 629 nM
2 | O=S(=O)(CCO)Nc1ccc(/C(F)=C/c2cc(N3CCC(F)(F)CC3)c3ncccc3c2)c(N2CCC3(CC2)CC3)c1 [Example 2, (Z)-N-(4-(2-(8-(4,4-difluoropiperidin-1-yl)quinolin-6-yl)-1-fluorovinyl)-3-(6-azasppiro[2.5]octan-6-yl)phenyl)-2-hydroxyethane-1-sulfonamide] | > 3000 nM | 766 nM | 811 nM
3 | O=S(=O)(CCO)Nc1ccc(/C(F)=C\c2cc(N3CCC(F)(F)CC3)c3ncccc3c2)c(N2CCC3(CC2)CC3)c1 [Example 3, (E)-N-(4-(2-(8-(4,4-difluoropiperidin-1-yl)quinolin-6-yl)-1-fluorovinyl)-3-(6-azasppiro[2.5]octan-6-yl)phenyl)-2-hydroxyethane-1-sulfonamide] | 852 nM | 181 nM | 210 nM
4 | Cc1cc(-c2nnc(-c3ccc(NS(=O)(=O)CCO)cc3N3CCC4(CC3)CC4)[nH]2)nc(N2CCC(F)(F)CC2)n1 [Example 4, N-(4-(5-(2-(4,4-difluoropiperidin-1-yl)-6-methylpyrimidin-4-yl)-4H-1,2,4-triazol-3-yl)-3-(6-azaspiro[2.5]octan-6-yl)phenyl)-2-hydroxyethane-1-sulfonamide] | 38 nM | 62 nM | 77 nM
5 | Cc1cc(-c2noc(-c3ccc(NS(=O)(=O)CCO)cc3N3CCC4(CC3)CC4)n2)nc(N2CCC(F)(F)CC2)n1 [Example 7] | 102 nM | 1180 nM | > 3000 nM
6 | Cc1cc(-c2nnn(-c3ccc(NS(=O)(=O)CCO)cc3N3CCC4(CC3)CC4)n2)nc(N2CCC(F)(F)CC2)n1 [Example 8, N-(4-(5-(2-(4,4-difluoropiperidin-1-yl)-6-methylpyrimidin-4-yl)-2H-tetrazol-2-yl)-3-(6-azaspiro[2.5]octan-6-yl)phenyl)-2-hydroxyethane-1-sulfonamide] | 775 nM | 496 nM | 250 nM
7 | Cc1cc(-n2nnc(-c3ccc(NS(=O)(=O)CCO)cc3N3CCC4(CC3)CC4)n2)cc(N2CCC(F)(F)CC2)n1 [Example 9, N-(4-(2-(2-(4,4-difluoropiperidin-1-yl)-6-methylpyridin-4-yl)-2H-tetrazol-5-yl)-3-(6-azaspiro[2.5]octan-6-yl)phenyl)-2-hydroxyethane-1-sulfonamide] | 312 nM | 107 nM | 165 nM
8 | Cc1cc(-c2cn(-c3ccc(NS(=O)(=O)CCO)cc3N3CCC4(CC3)CC4)cn2)nc(N2CCC(F)(F)CC2)n1 [Example 10, N-(4-(4-(2-(4,4-difluoropiperidin-1-yl)-6-methylpyrimidin-4-yl)-1H-imidazol-1-yl)-3-(6-azaspiro[2.5]octan-6-yl)phenyl)-2-hydroxyethane-1-sulfonamide] | 251 nM | 46 nM | 56 nM
9 | COc1cc(-c2cn(-c3ccc(NS(=O)(=O)CCO)cc3N3CCC4(CC3)CC4)cn2)nc(N2CCC(F)(F)CC2)n1 [Example 11, N-(4-(4-(2-(4,4-difluoropiperidin-1-yl)-6-methoxypyrimidin-4-yl)-1H-imidazol-1-yl)-3-(6-azaspiro[2.5]octan-6-yl)phenyl)-2-hydroxyethane-1-sulfonamide] | 252 nM | 164 nM | 319 nM
10 | Cc1cc(-n2cnc(-c3ccc(NS(=O)(=O)CCO)cc3N3CCC4(CC3)CC4)c2)nc(N2CCC(F)(F)CC2)n1 [Example 12, N-(4-(1-(2-(4,4-difluoropiperidin-1-yl)-6-methylpyrimidin-4-yl)-1H-imidazol-4-yl)-3-(6-azaspiro[2.5]octan-6-yl)phenyl)-2-hydroxyethane-1-sulfonamide] | > 3000 nM | 464 nM | 568 nM
11 | Cc1cc(-n2cnc(-c3ccc(NS(=O)(=O)CCO)cc3N3CCC4(CC3)CC4)c2)cc(N2CCC(F)(F)CC2)n1 [Example 13, N-(4-(1-(2-(4,4-difluoropiperidin-1-yl)-6-methylpyridin-4-yl)-1H-imidazol-4-yl)-3-(6-azaspiro[2.5]octan-6-yl)phenyl)-2-hydroxyethane-1-sulfonamide] | 1280 nM | 472 nM | 444 nM
12 | Cc1cc(-c2nnc(-c3ccc(NS(=O)(=O)CCO)cc3N3CCC4(CC3)CC4)s2)nc(N2CCC(F)(F)CC2)n1 [Example 14, N-(4-(5-(2-(4,4-difluoropiperidin-1-yl)-6-methylpyrimidin-4-yl)-1,3,4-thiadiazol-2-yl)-3-(6-azaspiro[2.5]oct-6-yl)phenyl)-2-hydroxyethane-1-sulfonamide] | 158 nM | 145 nM | 88 nM

Further lines, results first:

Row | IC50 [1] | IC50 [2] | IC50 [3] | SMILES
13 | 60 nM | 61 nM | 60 nM | Cc1cc(-c2nnc(-c3ccc(NS(=O)(=O)CCO)cc3N3CCC4(CC3)CC4)o2)nc(N2CCC(F)(F)CC2)n1 [Example 15, N-(4-(5-(2-(4,4-difluoropiperidin-1-yl)-6-methylpyrimidin-4-yl)-1,3,4-oxadiazol-2-yl)-3-(6-azaspiro[2.5]octan-6-yl)phenyl)-2-hydroxyethane-1-sulfonamide]
14 | 243 nM | 717 nM | 1520 nM | Cc1cc(-c2nnc(-c3ccc(NS(=O)(=O)CCO)cc3N3CCC4(CC3)CC4)o2)nc(NC(C)(C)CO)n1 [Example 16, 2-hydroxy-N-(4-(5-(2-((1-hydroxy-2-methylpropan-2-yl)amino)-6-methylpyrimidin-4-yl)-1,3,4-oxadiazol-2-yl)-3-(6-azaspiro[2.5]octan-6-yl)phenyl)ethane-1-sulfon amide]
15 | 46 nM | 74 nM | 337 nM | Cc1cc(-c2nnc(-c3ccc(NS(=O)(=O)CCO)cc3N3CCC4(CC3)CC4)o2)nc(N2CCCC(O)C2)n1 (stereo not drawn) [Example 17, 2-hydroxy-N-(4-(5-(2-(3-hydroxypiperidin-1-yl)-6-methylpyrimidin-4-yl)-1,3,4-oxadiazol-2-yl)-3-(6-azaspiro[2.5]octan-6-yl)phenyl)ethane-1-sulfonamide]
16 | 52 nM | 30 nM | 26 nM | Cc1cc(-c2nnc(-c3ccc(NS(=O)(=O)CCO)cc3N3CCC4(CC3)CC4)o2)nc(N2CCO[C@H](C)C2)n1 [Example 18, (R)-2-hydroxy-N-(4-(5-(6-methyl-2-(2-methylmorpholino)pyrimidin-4-yl)-1,3,4-oxadiazol-2-yl)-3-(6-azaspiro[2.5]octan-6-yl)phenyl)ethane-1-sulfonamide]
17 | 630 nM | 1400 nM | > 3000 nM | Cc1cc(-c2nnc(-c3ccc(NS(=O)(=O)CCO)cc3N3CCC4(CC3)CC4)o2)nc(N2CCC(C)(O)CC2)n1 [Example 19, 2-hydroxy-N-(4-(5-(2-(4-hydroxy-4-methylpiperidin-1-yl)-6-methylpyrimidin-4-yl)-1,3,4-oxadiazol-2-yl)-3-(6-azaspiro[2.5]octan-6-yl)phenyl)ethane-1-sulfonamide]
18 | 61 nM | 139 nM | 55 nM | COc1cc(-c2nnc(-c3ccc(NS(=O)(=O)CCO)cc3N3CCC4(CC3)CC4)o2)nc(N2CCC(F)(F)CC2)n1 [Example 20, N-(4-(5-(2-(4,4-difluoropiperidin-1-yl)-6-methoxypyrimidin-4-yl)-1,3,4-oxadiazol-2-yl)-3-(6-azaspiro[2.5]octan-6-yl)phenyl)-2-hydroxyethane-1-sulfonamide]
